Test results reported in the NIST ThermoML archive (doi:10.1021/je401120a).
Numbers after ± are expanded uncertainties.

Test: xn = mol fraction of the nth substance listed
Conditions: 323.15 K, 101 kPa, Liquid; for electrical conductivity: Crison conductimeter (model GLP31); for speed of sound: Pulse-echo method; for mass density: Vibrating tube method

CCC[n+]1ccccc1.F[B-](F)(F)F [1-propylpyridinium tetrafluoroborate] + CO
Conditions	electrical conductivity [S/m]	mass density [kg/m3]	speed of sound [m/s]	viscosity [mPa·s]
x1 = 0.028	–	820.035 ± 0.39	1073.8 ± 1.2	–
x1 = 0.0313	3.87 ± 0.08	–	–	–
x1 = 0.0365	4.25 ± 0.09	–	–	–
x1 = 0.0422	4.68 ± 0.09	–	–	–
x1 = 0.0505	–	–	–	0.673 ± 0.018
x1 = 0.0577	–	867.868 ± 0.32	1123.5 ± 1.2	–
x1 = 0.0658	5.62 ± 0.11	–	–	–
x1 = 0.0775	6 ± 0.12	–	–	–
x1 = 0.0894	6.37 ± 0.13	–	–	–
x1 = 0.0967	–	918.92 ± 0.27	1178.7 ± 1.2	–
x1 = 0.0993	–	–	–	1.009 ± 0.025
x1 = 0.1294	6.98 ± 0.14	–	–	–
x1 = 0.1409	7.05 ± 0.14	–	–	–
x1 = 0.1459	–	970.736 ± 0.23	1237 ± 1.3	–
x1 = 0.1703	7.23 ± 0.14	–	–	–
x1 = 0.191	–	–	–	1.915 ± 0.045
x1 = 0.1952	–	1011.68 ± 0.19	1291 ± 1.3	–
x1 = 0.2002	7.2 ± 0.14	–	–	–
x1 = 0.2456	7 ± 0.14	–	–	–
x1 = 0.2819	6.64 ± 0.13	–	–	–
x1 = 0.291	–	–	–	3.255 ± 0.075
x1 = 0.3213	–	1086.6 ± 0.24	1385.4 ± 1.4	–
x1 = 0.3507	6.05 ± 0.12	–	–	–
x1 = 0.3918	–	–	–	4.475 ± 0.1
x1 = 0.3937	5.63 ± 0.11	–	–	–
x1 = 0.4002	–	1119.59 ± 0.3	1429.5 ± 1.5	–
x1 = 0.4334	5.12 ± 0.1	–	–	–
x1 = 0.464	4.78 ± 0.1	–	–	–
x1 = 0.4929	–	–	–	6.13 ± 0.13
x1 = 0.4965	–	1150.3 ± 0.41	1467.3 ± 1.6	–
x1 = 0.5398	3.97 ± 0.08	–	–	–
x1 = 0.5988	–	1175.76 ± 0.55	1503.9 ± 1.8	–
x1 = 0.6117	–	–	–	8.91 ± 0.19
x1 = 0.635	3.15 ± 0.06	–	–	–
x1 = 0.6904	–	1193.84 ± 0.7	1527.1 ± 1.9	–
x1 = 0.7331	–	–	–	14.27 ± 0.29
x1 = 0.7918	1.96 ± 0.039	–	–	–
x1 = 0.7923	–	–	–	18.12 ± 0.37
x1 = 0.8011	–	1211.54 ± 0.91	1550.5 ± 2	–
x1 = 0.8425	–	–	–	22.39 ± 0.46
x1 = 0.8824	–	1222.55 ± 1.1	1566.5 ± 2.2	–
x1 = 0.894	1.48 ± 0.03	–	–	–
x1 = 0.8956	–	–	–	26.94 ± 0.55
x1 = 0.9384	1.34 ± 0.027	–	–	–
x1 = 0.94	–	1229.15 ± 1.2	1575 ± 2.2	–
x1 = 0.9447	–	–	–	31.72 ± 0.65
x1 = 1	1.15 ± 0.023	1235.31 ± 1.4	1583.3 ± 2.3	36.99 ± 0.76
